# Where no end group is shown, it is not given here.
# Key:
# HLA-A*1101 = HLA-A*1101 (Homo sapiens, UniProt P04439, A114D/D185E/E176A/F33Y/L180Q/S129P/T187R); assay: MHC-peptide binding assay, inhibition of binding of radiolabeled standard peptide; conditions: unit not given in Table 1 (same values in Table 3 as IC50 nM), newly identified peptides, read-out: Affinity HLA-A*1101
# Description: (§1) Assays were as described.
# HLA-A*3301 = HLA-A*3301 (Homo sapiens, UniProt P04439, A270S/D185E/E176V/E277Q/E87N/F33T/G231S/H175R/I121M/I218V/I322F/K168Q/K210R/L300P/L318F/M331R/P217A/Q86R/Q94H/R138Q/T323A/T345S/T97I/V358M/Y195H); assay: as above; conditions: read-out: MHC binding affinity HLA-A*3301
# Description: as §1
# HLA-A*3001 = HLA-A*3001 (Homo sapiens, UniProt P04439, D140H/D185E/E176W/F33S/G80R/H175R/K168Q/R138E/R41S); assay: as above; conditions: read-out: MHC binding affinity HLA-A*3001
# Chain of HLA-A*3001 (P04439 25-365 limits assumed, stated change not applied): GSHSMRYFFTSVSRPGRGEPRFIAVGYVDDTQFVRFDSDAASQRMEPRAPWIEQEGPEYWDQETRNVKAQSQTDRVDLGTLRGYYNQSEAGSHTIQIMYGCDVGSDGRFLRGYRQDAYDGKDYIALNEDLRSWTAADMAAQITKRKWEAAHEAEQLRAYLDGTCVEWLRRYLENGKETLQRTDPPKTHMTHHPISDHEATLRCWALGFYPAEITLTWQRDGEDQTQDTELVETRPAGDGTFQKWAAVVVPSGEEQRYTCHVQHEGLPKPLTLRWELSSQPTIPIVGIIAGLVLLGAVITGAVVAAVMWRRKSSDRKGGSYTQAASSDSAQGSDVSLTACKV
# Description: as §1
# HLA-A*6801 = HLA-A*6801 (Homo sapiens, UniProt P04439, A269V/D185E/E176V/E277Q/E87N/F33Y/G231S/I121M/I166T/I218V/L180W/L300P/L318F/N151K/P208A/P217A/Q86R/R169H/T345S); assay: as above; conditions: read-out: MHC binding affinity HLA-A*6801
# Description: as §1
# HLA-A*3101 = HLA-A*3101 (Homo sapiens, UniProt P04439, A270S/D185E/E176V/E277Q/F33T/G231S/G80R/H175R/I121M/I218V/I322F/K168Q/L300P/L318F/M331R/P217A/Q94H/R138Q/T323A/T345S/T97I/V358M); assay: as above; conditions: read-out: MHC binding affinity HLA-A*3101
# Description: as §1
# HLA-A*0301 = HLA-A*0301 (Homo sapiens, UniProt P04439); assay: as above; conditions: read-out: MHC binding affinity HLA-A*0301
# Description: as §1
# [1] = test system: splenocytes of HLA-A*1101 transgenic mice; assay: Ex vivo IFN-γ ELISpot assay with splenocytes of immunized HLA-A*1101 transgenic mice; format: in vivo; conditions: Figure 3b; mice immunized with mixture of peptides and adjuvants compared with LpKS9-AM9-RS9
# Procedure: To evaluate peptide immunogenicity, HLA-A*1101 transgenic mice were inoculated subcutaneously (s.c.) at the base of the tail using a 30-gauge needle with single peptides or a mixture of CD8^+ T cell peptides (50 μg of each peptide per mouse) and PADRE ([…]) emulsified in 20 μg of GLA-SE (TLR4 agonist) with or without Pam2Cys. Pam2Cys concentration was 5 mg/ml. For immunization with lipopeptides, HLA-A*1101 mice received 20 nmol lipopeptide dissolved in PBS or emulsified in GLA-SE. As controls, mice were injected with PBS or PBS/GLA-SE. For the lipopeptide immunizations, the mice were vaccinated twice at intervals of three weeks. For the peptide immunizations, mice were immunized three times at intervals of two weeks. For challenge studies, mice were immunized with peptide emulsions and challenged intraperitoneally (i.p.) 14 days post-immunization using 10,000 Type II parasites.
# Mice were euthanized 7 to 14 days after immunization. […]
# PBMC were obtained, HLA haplotype was determined, and they were processed and cryopreserved as described. […] Results were expressed as number of spot forming cells (SFCs) per 10^6 PBMCs or per 10^6 murine splenocytes.
# Two-tailed P values < 0.05 were considered statistically significant. […] The experiment in Figure 7b determined immune response and imaged mice in parallel.
Sequence,IC50 (HLA-A*1101) [nM],IC50 (HLA-A*3301) [nM],IC50 (HLA-A*3001) [nM],IC50 (HLA-A*6801) [nM],IC50 (HLA-A*3101) [nM],IC50 (HLA-A*0301) [nM],IFN-γ production on stimulation of spleen cells by the peptide [1]
AVVSLLRLLK,34,1100,8.1,94,1300,17,
RSFKDLLKK,,,,,,,not significant
SSAYVFSVK,10,181,1830,2.1,97,12,
STFWPCLLR,10,3.4,1270,0.97,1.2,22,

# Source: paper PMC3009956, “Human immunome, bioinformatic analyses using HLA supermotifs and the parasite genome, binding assays, studies of human T cell responses, and immunization of HLA-A*1101 transgenic mice including novel adjuvants provide a foundation for HLA-A03 restricted CD8^+T cell epitope based, adjuvanted vaccine …” (Immunome Research, 2010)
